Test results taken from publication PMC6396024, “Artemin and an Artemin-Derived Peptide, Artefin, Induce Neuronal Survival, and Differentiation Through Ret and NCAM” (Frontiers in Molecular Neuroscience, 2019).
Bridge positions count the residues as written; N and C are the ends. Ends that are not written are not given here. I, II: the chains in the order shown.

Legend:
[1] = test system: cerebellar granule neurons (CGNs); assay: Survival assay of CGNs induced to undergo apoptosis by potassium withdrawal; type: cell-based, Wistar rat; details: for neuronal survival in apoptotic medium: 48 h, 5 mM KCl, serially diluted ARTN or artefin, paired t-test; for maximal neuroprotective effect / maximum level of neuronal survival: control 40 mM KCl = 100%, mean of five experiments
Description: Cerebellar granule neurons (CGNs) were prepared from 7-day-old Wistar rat pups (Charles River Laboratories, Sulzfeld, Germany) as previously described ([Schousboe et al., 1989]). Briefly, pups were decapitated, and the cerebellum was removed and cleared from blood vessels and meninges in ice-cold modified Krebs-Ringer buffer. The cerebellum was dissociated by chopping and trypsinization. Cells were washed in Krebs-Ringer buffer containing DNAse I (Sigma, St. Louis, MO, United States) and soybean trypsin inhibitor (Sigma) to stop trypsinization, and the remaining tissue pieces were pelleted by centrifugation. Cells were then washed in Krebs-Ringer buffer containing Ca^2+ and Mg^2+ and re-suspended in appropriate Neurobasal^TM medium (Invitrogen, Taastrup, Denmark) with supplements depending on the experiment.
Cerebellar granule neurons were re-suspended in Neurobasal^TM-A medium supplemented with 2% (v/v) B27 (Invitrogen, Taastrup, Denmark), 0.5% (v/v) glutamax, 100 U/ml penicillin, 100 μg/ml streptomycin, and 40 mM KCl, and seeded at a density of 1 × 10^5 cells/well in 8-well LabTek Permanox chamber slides (Nunc, Roskilde, Denmark) coated with poly-L-lysine (10 μg/ml). To avoid proliferation of non-neuronal cells, cytosine-β-D-arabinofuranoside (Sigma) was added to cells 24 h after plating. CGNs were allowed to differentiate for 7 days in vitro (DIV) in the presence of 40 mM KCl before being induced to undergo apoptosis by changing the medium to one containing only 5 mM KCl (apoptotic medium) ([D’Mello et al., 1993]). At 7 DIV, cells were washed and stimulated with serially diluted ARTN or artefin diluted in the apoptotic medium. Three different controls were included; (1) cells grown in medium containing 40 mM KCl served as a positive control; (2) cells grown in medium containing 5 mM KCl served as a negative control; (3) cells grown in medium containing 5 mM KCl supplemented with 50 ng/ml insulin growth factor-1 (IGF-1) (Life Technology), a known anti-apoptotic factor for CGNs in this setup ([Galli et al., 1995]). After 48 h following the induction of apoptosis, cells were fixated in 4% formaldehyde for 30 min, and nuclear morphology was visualized with Hoechst 33258 staining (Invitrogen, Taastrup, Denmark) (Figure 2A). Images of cells were obtained using a Nikon Diaphot 200 fluorescent microscope equipped with a Nikon Plan 40× objective (Nikon, Tokyo, Japan) and coupled to a black-white video camera. Images of at least 1000 cells/well in different fields of view were analyzed, and the percentage of viable neurons was estimated as the ratio of live cells (non-pyknotic cells with dispersed chromatin) to the total number of neurons.
FIGURE 2 Effect of ARTN and artefin on survival of cerebellar granular neurons (CGNs) induced to undergo apoptosis. CGNs were differentiated for 7 days in the presence of 40 mM KCl before apoptosis was induced by potassium withdrawal. (A) Nuclear morphology of CGNs after Hoechst 33258 staining. […] Scale bar: 100 μm. Cells were grown for 48 h in media, containing 40 mM KCl, apoptotic medium (5 mM KCl) or apoptotic medium supplemented with 50 ng/ml IGF-1 (positive control) (B), serially diluted ARTN (C), or artefin (D). Each experiment was performed in the presence of the three controls (40 mM KCl, 5 mM KCl, and 5 mM KCl plus IGF-1), and the survival effect of the growth factor and the peptide was compared to its own apoptotic control (5 mM KCl). Results from the five experiments are expressed as percentage of 40 mM KCl control set at 100% and presented as mean ± SEM. The anti-apoptotic effect of ARTN and artefin was tested using Student’s paired t-test, where ^∗p < 0.05; ^∗∗p < 0.01; ^∗∗∗p < 0.001; ^∗∗∗∗p < 0.0001.

[2] = test system: RET; assay: RET phosphorylation assay in PC12-E2 cells; type: cell-based; details: PC12-E2, 10 min; ARTN 2.1 nM, artefin 12.64 μM; phosphotyrosine/total RET by immunoblot; control = 100%
Description: The pheochromocytoma cell line PC12-E2 (gift from Dr. Klaus Seedorf, Hagedorn Research Institute, Gentofte Municipality, Denmark) was propagated in Dulbecco’s modified Eagle’s medium (DMEM) supplemented with 5% (v/v) fetal calf serum (FCS), 10% (v/v) horse serum (HS), 1% (v/v) glutamax, 100 U/ml penicillin, and 100 μg/ml streptomycin. Cells were grown at 37°C in a humidified atmosphere containing 5% CO2.
Phosphorylation of RET was assayed in PC12-E2 cells. Cells were seeded at a density of 7 × 10^4 cells/cm^2 in 6 cm cell culture dishes (Nunc) and grown for 24 h. Cells were then grown in starvation medium (growth media with FCS switched to 1%) for 4 h before being stimulated with recombinant human ARTN (2.1 nM) or artefin (12.64 μM) for 10 min. Non-stimulated cells served as a control. Cell lysates were separated by SDS-polyacrylamide gel electrophoresis (SDS-PAGE) and transferred to an Immobilon-P membrane (Millipore, Billerica, MA, United States). Membranes were stained with mouse anti-phosphotyrosine antibody (BD Transduction Lab, New York City, NY, United States; 1:500) or RET (goat anti-mouse antibody, R&D systems, 1:500), followed by incubation with HRP-conjugated anti-mouse IgG. […] RET phosphorylation was determined as the ratio between phosphorylated and total RET. […]

[3] = 48 h in apoptotic medium (5 mM KCl)

Molecule | neuronal survival in apoptotic medium [1] | concentration of maximum neuronal survival [1, 3] | maximal neuroprotective effect / maximum level of neuronal survival [1, 3] | RET phosphorylation compared to unstimulated control [2] | concentration of maximal neuroprotective effect [1, 3]
I: RSPHDLSLASLLGAGKK-NH2 / II: RSPHDLSLASLLGAGK / III: RSPHDLSLASLLGAG / IV: RSPHDLSLASLLGAG (amide I:16-IV:C, I:17-II:C, II:16-III:C; C-terminus assumed) [artefin] | significantly promoted neuronal survival | 0.156 µM | 72.95 % of control | ~500% | –
recombinant human Artemin (ARTN) (ligand, UniProt Q5T4W7 108-220, looked up, Artemin (ARTN), human, UniProt D3DPX9; source: bought: R&D Systems) AGGPGSRARAAGARGCRLRSQLVPVRALGLGHRSDELVRFRFCSGSCRRARSPHDLSLASLLGAGALRPPPGSRPVSQPCCRPTRYEAVSFMDVNSTWRTVDRLSATACGCLG | promoted the survival of CGNs in culture in a dose-dependent manner | – | 68.3 % of control | ~600% | 4 pM
